{"source": "paper PMC6150365", "about": "“Simultaneous Determination of Seven Components in Rat Plasma by the UPLC-MS/MS Method and Application of Pharmacokinetic Studies to SimiaoYong’an Decoction” (Molecules : A Journal of Synthetic Chemistry and Natural …, 2017)", "assay": "Pharmacokinetic study in rats after oral administration of SYD extract and its single and combined TCM extracts (UPLC-MS/MS of plasma)", "settings": "male, Sprague-Dawley, rat, plasma, po, n = 6; for AUC(0-t) / AUC(0-inf) / Cmax / MRT last / MRT inf / Tmax: rat plasma; for MRT last: MRT(0–t); for MRT inf: MRT(0–∞)", "key": {"[1]": {"settings": "2.49 g/kg, oral SN extract 2.49 g/kg"}, "[2]": {"settings": "3.38 g/kg extract (6.67 g/kg as herbs), oral SN + GU extract"}, "[3]": {"settings": "3.38 g·kg^−1 (extract), oral SN + GU extract"}, "[4]": {"settings": "3.98 g/kg extract (8.33 g/kg as herbs), oral SN + AS extract"}, "[5]": {"settings": "4.5 g·kg^−1 (extract), oral LJ + SN extract"}, "[6]": {"settings": "4.5 g·kg^−1 extract, oral LJ + SN extract"}, "[7]": {"settings": "4.73 g/kg, oral LJ + SN + GU extract 4.73 g/kg"}, "[8]": {"settings": "5.43 g/kg, oral LJ + SN + AS extract 5.43 g/kg"}, "[9]": {"settings": "8.25 g/kg, oral SYD extract 8.25 g/kg"}}, "description": "Pieces of LJ, SN, AS and GU were weighed according to the proportion of 3:3:2:1 with appropriate amounts. The mixed pieces were crushed and decocted two times (60 min each time) with water (1:10 w/v) after being soaked for 60 min. The decoctions were then combined and condensed to the concentration of 0.5 g/mL, after which 95% ethanol was slowly added to the concentrate until a final ethanol concentration of 70% was reached. The SYD solution was set at room temperature overnight and then was filtered. The solvent was recovered, and the residue was dried under reduced pressure. A certain amount of the water extract of SYD was weighed and then dissolved with purified water for intragastric (oral) administration solution. The single herbs and different combination groups such as LJ, SN, AS, GU, LJ + SN, LJ + AS, LJ + GU, SN + AS, SN + GU, AS + GU, LJ + SN + AS, LJ + SN + GU, LJ + AS + GU and SN + AS + GU were prepared according to the procedure of SYD.\nMale Sprague-Dawley (SD) rats (body weight 250 ± 10 g) were supplied by the SPF (Beijing) Biotechnology Co., Ltd. (Certificate No.: SCXK 2016-0002, Beijing, China). The animals were maintained in controlled conditions (temperature 20–25 °C, relative humidity 55–60% and 12-h light/12-h dark cycle) with free access to standard laboratory food and water for seven days of acclimation and then fasted for 12 h before each experiment but allowed to drink freely during this time.\nNinety male SD rats were randomly separated into 15 groups and administered a dosage of extract via gastric gavage once per day; detailed information about the oral daily dose of SYD extract and the corresponding single and combined TCMs (LJ, SN, AS, GU, LJ + SN, LJ + AS, LJ + GU, SN + AS, SN + GU, AS + GU, LJ + SN + AS, LJ + SN + GU, LJ + AS + GU, SN + AS + GU and SYD) is listed in Table 4.\nEach plasma sample (200 μL) with 50 μL IS solution added was spiked into 100 μL 1% formic acid distilled water solution and then vortexed for 1 min. Protein was precipitated by adding 600 μL of methanol to the mixture. After being vortexed and sonicated, the samples were centrifuged at 25,000 r/min, 4 °C for 10 min. The supernatant of each sample was transferred to a new 2-mL centrifuge tube and evaporated to dryness by N2 at 40 °C. Finally, the residue was dissolved in 100 μL methanol–water (1:1, v/v), followed by centrifugation at 30,000 r/min, 4 °C for 10 min, and 10-μL supernatant aliquots were injected into the UPLC-MS/MS system for analysis.\nThe SYD was decomposed into 15 groups of compatibility combinations (LJ, SN, AS, GU, LJ + SN, LJ + AS, LJ + GU, SN + AS, SN + GU, AS + GU, LJ + SN + AS, LJ + SN + GU, LJ + AS + GU, SN + AS + GU and SYD). The 15 combinations were weighed according to the proportion of 3:3:2:1 with appropriate amounts and prepared by the method described in “Section 3.2”. Six male SD rats (body weight 250 ± 10 g) of each compatibility group were used in the pharmacokinetic study. After 12-h fast, rats of the different groups were orally administered the respective extract dissolved in saline (Table 4). Venous blood (0.45 mL) was obtained from the orbit vein and collected in heparin-pretreated polypropylene centrifuge tubes at 0.083 h, 0.17 h, 0.25 h, 0.50 h, 0.75 h, 1.0 h, 1.5 h, 2.0 h, 3.0 h, 4.0 h, 6.0 h, 8.0, 12 h and 24 h post-dose. The plasma was separated by centrifugation at 8000 r/min for 10 min and then stored at −20 °C until analysis. The amount of each analyte in the plasma was estimated by UPLC-MS/MS analysis as described in Section 3.5.\nNon-compartmental methods using Phoenix WinNonlin 7.0 software provided by the Beijing University of Chinese Medicine were used to analyze plasma concentration versus time profiles and to estimate the following pharmacokinetic parameters: terminal elimination half-lives (t1/2), area under the plasma concentration versus time curve from zero to last sampling time (AUC), and the mean residence time (MRT)."}
{"smiles": "C[C@]1(OC(=O)/C=C/c2ccccc2)C[C@@H](O)[C@]2(O)C=CO[C@@H](O[C@@H]3O[C@H](CO)[C@@H](O)[C@H](O)[C@H]3O)[C@@H]21", "note": "[Harpagoside, harpagoside]", "values": [{"measurement": "AUC(0-t)", "setting": "[1]", "value": "310 ± 110", "unit": "ng·h/mL"}, {"measurement": "AUC(0-inf)", "setting": "[1]", "value": "320 ± 110", "unit": "ng·h/mL"}, {"measurement": "Cmax", "setting": "[1]", "value": "110 ± 50", "unit": "ng/mL"}, {"measurement": "MRT last", "setting": "[1]", "value": "4.75 ± 1.17", "unit": "h"}, {"measurement": "MRT inf", "setting": "[1]", "value": "5.69 ± 3.19", "unit": "h"}, {"measurement": "Tmax", "setting": "[1]", "value": "1.08 ± 0.47", "unit": "h"}, {"measurement": "half-life", "setting": "2.49 g/kg, t1/2, rat plasma, oral SN extract 2.49 g/kg", "value": "200 ± 202", "unit": "min"}, {"measurement": "MRT last", "setting": "[2]", "value": "5.72 ± 2.55", "unit": "h"}, {"measurement": "MRT inf", "setting": "[2]", "value": "47.5 ± 78.2", "unit": "h"}, {"measurement": "Tmax", "setting": "[2]", "value": "1.25 ± 0.59", "unit": "h"}, {"measurement": "half-life", "setting": "3.38 g/kg extract (6.67 g/kg as herbs), t1/2, rat plasma, oral SN + GU extract", "value": "1100 ± 414", "unit": "min"}, {"measurement": "AUC(0-t)", "setting": "[3]", "value": "80 ± 10", "unit": "ng·h/mL"}, {"measurement": "AUC(0-inf)", "setting": "[3]", "value": "110 ± 80", "unit": "ng·h/mL"}, {"measurement": "Cmax", "setting": "3.38 g·kg^−1 extract, oral SN + GU extract", "value": "50 ± 10", "unit": "ng/mL"}, {"measurement": "AUC(0-t)", "setting": "[4]", "value": "100 ± 70", "unit": "ng·h/mL"}, {"measurement": "AUC(0-inf)", "setting": "[4]", "value": "130 ± 90", "unit": "ng·h/mL"}, {"measurement": "MRT last", "setting": "[4]", "value": "4.51 ± 2.04", "unit": "h"}, {"measurement": "MRT inf", "setting": "[4]", "value": "41.9 ± 67.3", "unit": "h"}, {"measurement": "half-life", "setting": "3.98 g·kg^−1, t1/2, rat plasma, oral SN + AS extract", "value": "997 ± 84", "unit": "min"}, {"measurement": "Cmax", "setting": "3.98 g·kg^−1 extract, oral SN + AS extract", "value": "70 ± 10", "unit": "ng/mL"}, {"measurement": "MRT last", "setting": "[5]", "value": "5.32 ± 1.39", "unit": "h"}, {"measurement": "MRT inf", "setting": "[5]", "value": "46.3 ± 70.7", "unit": "h"}, {"measurement": "half-life", "setting": "4.5 g·kg^−1 (extract), t1/2, rat plasma, oral LJ + SN extract", "value": "945 ± 71.4", "unit": "min"}, {"measurement": "AUC(0-t)", "setting": "[6]", "value": "60 ± 10", "unit": "ng·h/mL"}, {"measurement": "AUC(0-inf)", "setting": "[6]", "value": "90 ± 10", "unit": "ng·h/mL"}, {"measurement": "Cmax", "setting": "[6]", "value": 30, "unit": "ng/mL"}, {"measurement": "AUC(0-t)", "setting": "[7]", "value": "150 ± 70", "unit": "ng·h/mL"}, {"measurement": "AUC(0-inf)", "setting": "[7]", "value": "190 ± 110", "unit": "ng·h/mL"}, {"measurement": "Cmax", "setting": "[7]", "value": 80, "unit": "ng/mL"}, {"measurement": "MRT last", "setting": "[7]", "value": "3.17 ± 0.59", "unit": "h"}, {"measurement": "MRT inf", "setting": "[7]", "value": "22.6 ± 31.1", "unit": "h"}, {"measurement": "Tmax", "setting": "[7]", "value": "1.79 ± 0.51", "unit": "h"}, {"measurement": "half-life", "setting": "4.73 g/kg, t1/2, rat plasma, oral LJ + SN + GU extract 4.73 g/kg", "value": "796 ± 275", "unit": "min"}, {"measurement": "AUC(0-t)", "setting": "[8]", "value": "110 ± 80", "unit": "ng·h/mL"}, {"measurement": "AUC(0-inf)", "setting": "[8]", "value": "110 ± 80", "unit": "ng·h/mL"}, {"measurement": "Cmax", "setting": "[8]", "value": 50, "unit": "ng/mL"}, {"measurement": "MRT last", "setting": "[8]", "value": "3.16 ± 0.68", "unit": "h"}, {"measurement": "MRT inf", "setting": "[8]", "value": "13 ± 19.9", "unit": "h"}, {"measurement": "Tmax", "setting": "[8]", "value": "1.63 ± 0.49", "unit": "h"}, {"measurement": "half-life", "setting": "5.43 g/kg, t1/2, rat plasma, oral LJ + SN + AS extract 5.43 g/kg", "value": "587 ± 302", "unit": "min"}, {"measurement": "AUC(0-t)", "setting": "[9]", "value": "120 ± 90", "unit": "ng·h/mL"}, {"measurement": "AUC(0-inf)", "setting": "[9]", "value": "140 ± 90", "unit": "ng·h/mL"}, {"measurement": "Cmax", "setting": "[9]", "value": "70 ± 70", "unit": "ng/mL"}, {"measurement": "MRT last", "setting": "[9]", "value": "3.92 ± 1.31", "unit": "h"}, {"measurement": "MRT inf", "setting": "[9]", "value": "19.8 ± 8.74", "unit": "h"}, {"measurement": "Tmax", "setting": "[9]", "value": 1.5, "unit": "h"}, {"measurement": "half-life", "setting": "8.25 g/kg, t1/2, rat plasma, oral SYD extract 8.25 g/kg", "value": "672 ± 158", "unit": "min"}, {"measurement": "Tmax", "setting": "[…], oral SN + AS + GU extract […]", "value": "0.83 ± 0.13", "unit": "h"}, {"measurement": "half-life", "setting": "[…], t1/2, rat plasma, oral SN + AS + GU extract […]", "value": "932 ± 92.4", "unit": "min"}]}
